We go through three compounds from article PMC4018225 (Biopharmaceutics & drug disposition, 2013).

Each structure is given as a SMILES string. Like-named read-outs stand apart in the source and are kept apart here. Marks after values point to notes of the source that are not given here.

The nature of data set [1]: Reference pharmacokinetics of CsA and TAC in nonHIV transplant patients. The format is in vivo, human. The settings on record: nonHIV tx; average for both PI time periods.
Data set [2] is classed as in vivo, human. The settings on record: for AUC (weight and dose normalized) / TAC V/F: median [IQR]; for CL/F: human, whole blood, oral.
The conditions of data set [3]: nonHIV tx, cited from earlier work.
For data set [4] the following is noted: HIV-1 infected volunteers; concomitant use of EFV or NVP; cited from earlier work.
For data set [5] the following is noted: HIV infected subjects compared to healthy volunteers; cited from earlier work.
Where [6] appears, read: co-medication EFV, wk 28, 52, 104.
Where [7] appears, read: co-medication NVP, wk 28, 52, 104.

With `C=CC[C@@H]1/C=C(\C)C[C@H](C)C[C@H](OC)[C@H]2O[C@@](O)(C(=O)C(=O)N3CCCC[C@H]3C(=O)O[C@H](/C(C)=C/[C@@H]3CC[C@@H](O)[C@H](OC)C3)[C@H](C)[C@@H](O)CC1=O)[C@H](C)C[C@@H]2OC` [TAC, tacrolimus], the “TAC CL/F Ratio to PI” value is listed as “(10.1) ^*” in data set [1]; 18.1 in data set [2] (setting [6]); 11.5 in data set [2] (co-medication EFV, wks 2–12); 8.72 in data set [2] (setting [7]); 6.85 in data set [2] (co-medication NVP, wks 2–12); 1 in data set [2] (co-medication PI, wk 28, 52). Besides, the “TAC CL/F Ratio to PI” value in data set [2] (co-medication PI, wks 2–12) amounted to 1. In addition, the “TAC CL/V Ratio to PI” value is “(1.6) ^*” in data set [1]; 2.33 in data set [2] (setting [6]); 1.72 in data set [2] (co-medication EFV, wks 2–12); 1.07 in data set [2] (setting [7]); 1.31 in data set [2] (co-medication NVP, wks 2–12); 1 in data set [2] (co-medication PI, wk 28, 52). The “TAC CL/V Ratio to PI” value in data set [2] (co-medication PI, wks 2–12) was found to be 1. Besides, the “TAC V/F Ratio to PI” value is recorded as “(6.2) ^*” in data set [1]; 7.78 in data set [2] (setting [6]); 6.66 in data set [2] (co-medication EFV, wks 2–12); 8.17 in data set [2] (setting [7]); 5.20 in data set [2] (co-medication NVP, wks 2–12); 1 in data set [2] (co-medication PI, wk 28, 52). Moreover, in data set [2] (co-medication PI, wks 2–12), the “TAC V/F Ratio to PI” value is listed as 1. Also, the “AUC (weight and dose normalized)” value was 2170 [936–3261] ng*hr/mL/mg/kg in data set [2] (+EFV, wks 2–12); 1911 [1423–3071] ng*hr/mL/mg/kg in data set [2] (+EFV, wks 28–104); 3644 [3115–5157] ng*hr/mL/mg/kg in data set [2] (+NVP, wks 2–12); 4220 [2703–6229] ng*hr/mL/mg/kg in data set [2] (+NVP, wks 28–104); 24996 [18205–41601] ng*hr/mL/mg/kg in data set [2] (+PI, wks 2–12); 34653 [17208–42250] ng*hr/mL/mg/kg in data set [2] (+PI, wks 28–104). Besides, the “AUC (weight and dose normalized)” value in data set [3] (wks 2–12) and in data set [3] (wks 28–104) was 2000 to 5000 ng·h/mL/mg/kg in each case. For the same compound, the “TAC CL/V” value in data set [2] (setting [6]) stood at 0.068 h⁻¹; in data set [2] (co-medication EFV, wks 2–12), 0.074 h⁻¹; in data set [2] (setting [7]) it was 0.031 h⁻¹; in data set [2] (co-medication NVP, wks 2–12), 0.056 h⁻¹; in data set [2] (co-medication PI, wk 28, 52), 0.029 h⁻¹; in data set [2] (co-medication PI, wks 2–12) it was 0.043 h⁻¹. The “TAC CL/V” value in data set [3] was 0.058 h⁻¹. In addition, the “TAC V/F” value in data set [2] (setting [6]) was 7.70 [6.22–10.70] L/kg; in data set [2] (co-medication EFV, wks 2–12) it was 6.26 [5.42–10.91] L/kg; in data set [2] (setting [7]) it was 8.09 [3.46–15.14] L/kg; in data set [2] (co-medication NVP, wks 2–12), 4.89 [2.74–6.16] L/kg; in data set [2] (co-medication PI, wk 28, 52), 0.99 [0.31–1.19] L/kg; in data set [2] (co-medication PI, wks 2–12), 0.94 [0.64–1.29] L/kg. Further, the “TAC V/F” value in data set [3] was 6 L/kg. Besides, the CL/F in data set [2] (0.003 mg/kg) was 0.483 mL/min/kg; in data set [2] (0.007 mg/kg), 0.667 mL/min/kg; in data set [2] (0.046 mg/kg), 8.77 mL/min/kg; in data set [2] (0.058 mg/kg), 7.68 mL/min/kg. Also, in data set [2] (in vivo), the “TAC apparent volume of distribution ratio, PI compared to EFV” value is 0.15. Further, in data set [2] (in vivo), the “TAC apparent volume of distribution ratio, PI compared to NVP” value turned out to be 0.19. In addition, in data set [2] (in vivo), the “increase in drug exposure on concomitant administration with PIs” value is recorded as 2–50 fold. The “increase in exposure (AUC/dose) in the presence of PIs relative to NNRTIs” value in data set [2] (in vivo) is listed as “more than 10 fold”. Besides, in data set [2] (weeks 2–12), the “TAC CL/F ratio, PI compared to EFV” value is 0.09. Also, in data set [2] (weeks 2–12), the “TAC CL/F ratio, PI compared to NVP” value is 0.15. For the same compound, in data set [3], the “TAC CL/F” value was 5.83 mL/min/kg.
As to `Cc1cccc(C)c1OCC(=O)N[C@@H](Cc1ccccc1)[C@@H](O)C[C@H](Cc1ccccc1)NC(=O)[C@H](C(C)C)N1CCCNC1=O` [lopinavir], the “increase in apparent oral clearance” value in data set [4] was 39%.
On to `Cc1ncc2n1-c1ccc(Cl)cc1C(c1ccccc1F)=NC2` [midazolam], for which, in data set [5], the decrease in clearance is ~ 50%.
